{"source": "patent US9700578B2", "about": "“Use of nitrite salts for the treatment of cardiovascular conditions” (The United States of America as represented by the …, priority 2003, dated 2017)", "key": {"forearm circulation": {"tested_on": "forearm circulation", "assay": "Sodium nitrite infusion into the brachial artery, forearm blood flow by venous-occlusion plethysmography", "settings": "8 μmol/min into brachial artery for 5 minutes", "source_text": "The protocol was approved by the Institutional Review Board of the National Heart, Lung and Blood Institute, and informed consent was obtained from all volunteer subjects. […] An additional 10 subjects returned three-six months later for a second series of experiments with low dose nitrite infusion. […] No volunteer subject was allowed to take any medication (oral contraceptive agents allowed), vitamin supplements, herbal preparations, nutriceuticals or other “alternative therapies” for at least one month prior to study and were not be allowed to take aspirin for one week prior to study.\nBrachial artery and antecubital vein catheters were placed into the arm, with the intraarterial catheter connected to a pressure transducer for blood pressure measurements and an infusion pump delivering normal saline at 1 mL/min. After 20 minutes of rest, baseline arterial and venous blood samples were obtained and forearm blood flow measurements were made by strain gauge venous-occlusion plethysmography, as previously reported (Panza et al., Circulation, 87, 1468-74, 1993). A series of 7 blood flow measurements were averaged for each blood flow determination. A series of measurements termed Parts I and II were performed in randomized order to minimize a time effect on the forearm blood flow response during nitrite infusion.\nPart I: Following 20 minutes of 0.9% NaCl (saline) solution infusion at 1 mL/min into the brachial artery, arterial and venous blood samples were obtained for the assays described below and forearm blood flow measured. Exercise was performed by repetitive hand-grip at one-third of the predetermined maximum grip strength using a hand-grip dynamometer (Technical Products Co.) (Gladwin et al., Proc Natl Acad Sci USA, 97, 9943-8, 2000; Gladwin et al., Proc Natl Acad Sci USA, 97, 11482-11487, 2000; Cannon et al., J Clin Invest, 108, 279-87, 2001). Each contraction lasted for 10 seconds followed by relaxation for 5 seconds. Following 5 minutes of exercise, forearm blood flow measurements were obtained during relaxation phases of exercise, and arterial and venous samples collected. Following a 20-minute rest period with continued infusion of saline into the brachial artery, repeated baseline blood samples and forearm blood flow measurements were obtained. L-NMMA was then infused at a rate of 1 mL/min (8 μmol/min) into the brachial artery. Following 5 minutes of L-NMMA infusion, forearm blood flow was measured, and arterial and venous blood samples obtained. Forearm exercise was then initiated in that arm during continued L-NMMA infusion. Forearm blood flow was measured and blood samples obtained after 5 minutes of exercise during continued L-NMMA infusion (FIG. 1).\nPart II: After a 30 minute rest period with continued infusion of saline, baseline measurements were obtained, the saline infusion was then stopped, and infusion of nitrite (NaNO2 36 μmol/ml in 0.9% saline) at 1 ml/min was started. […] For the final 9 subjects studied, 0.01-0.03 mM sodium bicarbonate was added to the normal saline, so as to titrate pH to 7.0-7.4. The nitrite solution was light protected and nitrite levels and free NO gas in solution measured by reductive chemiluminescence after all experiments (Gladwin et al., J Biol Chem, 21, 21, 2002)."}, "[1]": {"tested_on": "hypoxic-induced pulmonary hypertension", "assay": "Comparison of inhaled nitrite and NO gas during hypoxic-induced pulmonary vasoconstriction: efficacy and duration", "format": "in vivo, newborn lambs", "settings": "hypoxia", "source_text": "NO gas was introduced into the inspiratory limb of the breathing circuit. The inspired concentration of NO was continuously measured by chemiluminescence (CLD 700 AL, Eco Physics Inc, Ann Arbor, Mich.) in the inspiratory limb of the ventilator loop.\nefficacy and duration of effect. This protocol was designed to compare the efficacy of nitrite with the clinical standard, 20 ppm inhaled NO gas. […] A second purpose was to determine the duration of effect of a short nitrite nebulization versus NO gas inhalation on hemodynamic and physiological measurements during prolonged hypoxic-induced pulmonary vasoconstriction. After baseline measurements were performed, the lambs were made hypoxic as described above for 35 minutes. Ten minutes after initiation of hypoxia, a 20-minute period of NO gas inhalation was initiated (20 ppm), with continuation of hypoxia for 5 minutes after cessation of NO gas delivery. Lambs were then allowed to recover for one hour. Again, after baseline measurements were made, a second 90-minute period of hypoxia was initiated."}, "[2]": {"tested_on": "hepatic ischemia-reperfusion injury", "assay": "Hepatic ischemia-reperfusion (I/R) injury", "format": "in vivo, mice", "method": "Carboxy-PTIO [2-(4-Carboxyphenyl)-4,4,5,5-tetramethylimidazoline-1-oxyl-3-oxide potassium salt], a direct intravascular NO scavenger, was utilized to inhibit NO dependent effects following hepatic I/R injury. Carboxy-PTIO (Alexis Biochemicals) was dissolved in phosphate buffered saline and administered intravenously at a dose of 1 mg/Kg in a volume of 50 μL at 30 minutes prior to hepatic ischemia Zinc(II) Deuteroporphyrin IX-2,4-bisethyleneglycol (ZnDBG) (Alexis Biochemicals), a heme oxygenase-1 inhibitor was injected i.p. at a dose of 10 mg/Kg in a volume of 50 μL at 30 minutes prior to the induction of hepatic ischemia.\nAll of the mice utilized in the present studies were C57BL6/J at 8-10 weeks of age obtained from the Jackson Laboratories (Bar Harbor, Me.). In additional experiments of hepatic I/R injury we utilized mice completely deficient (−/−) in endothelial nitric oxide synthase (eNOS). eNOS−/− mice were originally generously donated from Dr. Paul Huang (Mass. General Hospital) and generated in our breeding colony at LSU-Health Sciences Center. eNOS−/− mice were utilized at 8-10 weeks of age.\nThe hepatic I/R protocol is depicted in FIG. 6A and has been described previously (Hines et al., Biochem Biophys Res Commun 284:972-976, 2001; Hines et al., Am J Physiol Gastrointest Liver Physiol 284:G536-545, 2001). Mice were anesthetized with the combination of ketamine (100 mg/kg) and zylazine (8 mg/kg) and a midline laparotomy was performed to expose the liver. Mice were then injected with heparin (100 μg/kg, i.p.) to prevent blood clotting. The left lateral and median lobes of the liver were rendered ischemic by completely clamping the hepatic artery and the portal vein using microaneurysm clamps. This experimental model results in a segmental (70%) hepatic ischemia. This method of partial ischemia prevents mesenteric venous congestion by allowing portal decompression throughout the right and caudate lobes of the liver. The liver was then repositioned in the peritoneal cavity in its original location for 45 minutes. The liver was kept moist using gauze soaked in 0.9% normal saline. In addition, body temperature was maintained at 37° C. using a heat lamp and monitoring body temperature with a rectal temperature probe. Sham surgeries were identical except that hepatic blood flow was not reduced with a microaneurysm clamp. The duration of hepatic ischemia was 45 minutes in all experiments, following which the microaneurysm clamps were removed. The duration of hepatic reperfusion was 5 hours in the studies of serum liver transaminase levels (i.e., AST or ALT) and 24 hours for the studies of liver histopathology (such as hepatocellular infarction).\nSerum samples were analyzed for aspartate aminotransferase (AST) and alanine aminotransferase (ALT) using a spectrophotometric method (Sigma Chemical Co., St. Louis, Mo.) (Harada et al., Proc Natl Acad Sci USA 100:739-744, 2003). These enzymes are liver specific and are released from the liver during injury (Hines et al., Biochem Biophys Res Commun 284:972-976, 2001; Hines et al., Am J Physiol Gastrointest Liver Physiol 284:G536-545, 2001). […]"}, "[3]": {"tested_on": "U46619-induced normoxic pulmonary hypertension", "format": "in vivo", "settings": "2 μg/kg/min i.v. for 30 minutes; before 24±1", "procedure": "This is a simple, inexpensive, and widely available clinical nebulizer system, though other systems could be used.\nSix additional lambs were studied in order to evaluate the effects of nitrite nebulization on normoxic pulmonary hypertension. Stable normoxic pulmonary hypertension was induced by an infusion of a stable endoperoxide analog of thromboxane (U46619-9,11-dideoxy-11α-epoxymethano-prostaglandin F2α, Cayman Chemicals, Ann Arbor, Mich.). The drug was dissolved in saline and was administered at a rate of 2 μg/kg/min into the femoral venous catheter for 30 minutes. Nitrite was nebulized for inhalation during the last 20 minutes of the infusion (FIG. 11)."}}}
{"smiles": "CNC(=N)NCCC[C@H](N)C(=O)O", "note": "[L-NMMA, L-NG-monomethyl-arginine]", "values": [{"measurement": "reduction of forearm blood flow", "setting": "forearm circulation", "value": "approximately 30%"}]}
{"smiles": "[N]=O", "note": "[NO gas, nitric oxide]", "values": [{"measurement": "loss of the vasodilating effect after termination of delivery", "setting": "[1]; 20 ppm", "value": "in a matter of seconds"}, {"measurement": "reduction (correction) of hypoxic-induced pulmonary hypertension", "setting": "[1]; NO gas 20 ppm or nitrite aerosol for 20 minutes", "value": "about 80%"}]}
{"smiles": "CC1(C)N([O])C(c2ccc(C(=O)[O-])cc2)=[N+]([O-])C1(C)C.[K+]", "note": "[PTIO, 2-(4-Carboxyphenyl)-4,4,5,5-tetramethylimidazoline-1-oxyl-3-oxide potassium salt]", "values": [{"measurement": "effect on nitrite protection (serum AST)", "setting": "[2]; nitrite 24 μM + PTIO, full factorial design", "value": "completely inhibited protective effects of nitrite"}]}
{"smiles": "CCCCCC(O)/C=C/C1C2CC(CO2)C1C/C=C\\CCCC(=O)O", "note": "(stereo not drawn) [U46619, 9,11-dideoxy-11α-epoxymethano-prostaglandin F2α]", "values": [{"measurement": "pulmonary artery pressure during infusion", "setting": "[3]", "value": "51±4", "unit": "mmHg"}]}
{"smiles": "O=[N+]([O-])[O-].[Na+]", "note": "[sodium nitrate]", "values": [{"measurement": "serum elevations of liver transaminases AST and ALT", "setting": "[2]; intraperitoneal during hepatic ischemia, 45 min ischemia, 5 h reperfusion, nitrite 1.2-480 nmoles, nitrate 48 nmoles", "value": "did not exert any protective effects"}]}
